Tested on: 521955-158-R2-J5-PDC complex spheroids, viability
Assay: Anticancer human tumor 521955-158-R2-J5-PDC patient-derived pancreatic carcinoma cell line growth inhibition [RAS]
Settings: for IC50: curve of first compound; for viability, T/C: stronger effect = lower value
How it was run: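 Agents were tested in combination matrices in half-log decrements from a top concentration at or near clinical Cmax (10 microM if undetermined). Targets were multi-cell spheroids of tumour lines plus HUVEC and MSC stromal cells.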
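Note: compound exposure lasted seven days before the viability read.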
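Throughout, for viability, T/C: spheroids also contain HUVEC endothelial cells and mesenchymal stem cells as stroma.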

Compound `CC(Nc1ccc2c(c1)OCCn1cc(N3C(=O)OCC3C(F)F)nc1-2)C(N)=O` (centres undefined) + CCn1c(-c2cc(N3CCN(C)CC3)cnc2C(C)OC)c2c3cc(ccc31)-c1csc(n1)CC(NC(=O)C1CC1C)C(=O)N1CCCC(N1)C(=O)OCC(C)(C)C2 has an IC50 (second compound 0.000949 µM) of under 31.6 nM, an IC50 (second compound 0.003 µM) of under 31.6 nM and an IC50 (second compound 0.00949 µM) of under 31.6 nM. The IC50 (second compound 0.03 µM) was under 31.6 nM, the IC50 (second compound 0.0949 µM) was under 31.6 nM and the IC50 (second compound 0.3 µM) was under 31.6 nM. For the same compound, the viability, T/C (second compound 0.000949 µM, first compound 0.0316 µM) was 31.7%, the viability, T/C (second compound 0.000949 µM, first compound 0.1 µM) was 24.1% and the viability, T/C (second compound 0.000949 µM, first compound 0.316 µM) was 21.9%. The viability, T/C (second compound 0.000949 µM, first compound 1 µM) was 13.8%, the viability, T/C (second compound 0.000949 µM, first compound 3.16 µM) was 14.3% and the viability, T/C (second compound 0.000949 µM, first compound 10 µM) was 11.4%. It also gave a viability, T/C (second compound 0.003 µM, first compound 0.0316 µM) of 32.7%, a viability, T/C (second compound 0.003 µM, first compound 0.1 µM) of 22.1% and a viability, T/C (second compound 0.003 µM, first compound 0.316 µM) of 20.1%. For the same compound, the viability, T/C (second compound 0.003 µM, first compound 1 µM) was 13.7%, the viability, T/C (second compound 0.003 µM, first compound 3.16 µM) was 8.65% and the viability, T/C (second compound 0.003 µM, first compound 10 µM) was 7.85%. It also gave a viability, T/C (second compound 0.00949 µM, first compound 0.0316 µM) of 31.2%, a viability, T/C (second compound 0.00949 µM, first compound 0.1 µM) of 21.7% and a viability, T/C (second compound 0.00949 µM, first compound 0.316 µM) of 11.8%. The viability, T/C (second compound 0.00949 µM, first compound 1 µM) was 8.38%, the viability, T/C (second compound 0.00949 µM, first compound 3.16 µM) was 7.16% and the viability, T/C (second compound 0.00949 µM, first compound 10 µM) was 4.66%. It also gave a viability, T/C (second compound 0.03 µM, first compound 0.0316 µM) of 12.8%, a viability, T/C (second compound 0.03 µM, first compound 0.1 µM) of 10.3% and a viability, T/C (second compound 0.03 µM, first compound 0.316 µM) of 11.4%. It also gave a viability, T/C (second compound 0.03 µM, first compound 1 µM) of 3.73%, a viability, T/C (second compound 0.03 µM, first compound 3.16 µM) of 6.17% and a viability, T/C (second compound 0.03 µM, first compound 10 µM) of 1.25%. It also gave a viability, T/C (second compound 0.0949 µM, first compound 0.0316 µM) of 7.65%, a viability, T/C (second compound 0.0949 µM, first compound 0.1 µM) of 6.24% and a viability, T/C (second compound 0.0949 µM, first compound 0.316 µM) of 4.21%. The viability, T/C (second compound 0.0949 µM, first compound 1 µM) was 1.25%, the viability, T/C (second compound 0.0949 µM, first compound 3.16 µM) was 5.01% and the viability, T/C (second compound 0.0949 µM, first compound 10 µM) was 1.25%. It also gave a viability, T/C (second compound 0.3 µM, first compound 0.0316 µM) of 10.2%, a viability, T/C (second compound 0.3 µM, first compound 0.1 µM) of 6.36% and a viability, T/C (second compound 0.3 µM, first compound 0.316 µM) of 5.9%. It also gave a viability, T/C (second compound 0.3 µM, first compound 1 µM) of 3.16%, a viability, T/C (second compound 0.3 µM, first compound 3.16 µM) of 3.15% and a viability, T/C (second compound 0.3 µM, first compound 10 µM) of 0.45%.
`C=CC(=O)N1CCN(c2nc(OCC3CCCN3C)nc3c(F)c(-c4nc(N)cc(C)c4C(F)(F)F)c(Cl)cc23)C(C)C1` (centres undefined) + C#Cc1c(F)ccc2cc(O)cc(-c3ncc4c(N5CC6CCC(C5)N6)nc(OCC56CCCN5CC(F)C6)nc4c3F)c12 gave an IC50 (second compound 0.0316 µM) of over 1000 nM, an IC50 (second compound 0.1 µM) of over 1000 nM and an IC50 (second compound 0.316 µM) of over 1000 nM. It also gave an IC50 (second compound 1 µM) of over 1000 nM, an IC50 (second compound 3.16 µM) of under 3.16 nM and an IC50 (second compound 10 µM) of under 3.16 nM. The viability, T/C (second compound 0.0316 µM, first compound 0.00316 µM) was 61.3%, the viability, T/C (second compound 0.0316 µM, first compound 0.01 µM) was 63.1% and the viability, T/C (second compound 0.0316 µM, first compound 0.0316 µM) was 74.1%. It also gave a viability, T/C (second compound 0.0316 µM, first compound 0.1 µM) of 57.2%, a viability, T/C (second compound 0.0316 µM, first compound 0.316 µM) of 55.6% and a viability, T/C (second compound 0.0316 µM, first compound 1 µM) of 71.8%. For the same compound, the viability, T/C (second compound 0.1 µM, first compound 0.00316 µM) was 55.9%, the viability, T/C (second compound 0.1 µM, first compound 0.01 µM) was 64.8% and the viability, T/C (second compound 0.1 µM, first compound 0.0316 µM) was 58.7%. The viability, T/C (second compound 0.1 µM, first compound 0.1 µM) was 48.8%, the viability, T/C (second compound 0.1 µM, first compound 0.316 µM) was 56.6% and the viability, T/C (second compound 0.1 µM, first compound 1 µM) was 61.8%. The viability, T/C (second compound 0.316 µM, first compound 0.00316 µM) was 53.2%, the viability, T/C (second compound 0.316 µM, first compound 0.01 µM) was 56.8% and the viability, T/C (second compound 0.316 µM, first compound 0.0316 µM) was 58.5%. The viability, T/C (second compound 0.316 µM, first compound 0.1 µM) was 54.8%, the viability, T/C (second compound 0.316 µM, first compound 0.316 µM) was 52.8% and the viability, T/C (second compound 0.316 µM, first compound 1 µM) was 52.1%. The viability, T/C (second compound 1 µM, first compound 0.00316 µM) was 48%, the viability, T/C (second compound 1 µM, first compound 0.01 µM) was 72.6% and the viability, T/C (second compound 1 µM, first compound 0.0316 µM) was 47.1%. It also gave a viability, T/C (second compound 1 µM, first compound 0.1 µM) of 60.7%, a viability, T/C (second compound 1 µM, first compound 0.316 µM) of 53.2% and a viability, T/C (second compound 1 µM, first compound 1 µM) of 59.2%. It also gave a viability, T/C (second compound 3.16 µM, first compound 0.00316 µM) of 42.4%, a viability, T/C (second compound 3.16 µM, first compound 0.01 µM) of 52.1% and a viability, T/C (second compound 3.16 µM, first compound 0.0316 µM) of 54.8%. It also gave a viability, T/C (second compound 3.16 µM, first compound 0.1 µM) of 56.9%, a viability, T/C (second compound 3.16 µM, first compound 0.316 µM) of 50.6% and a viability, T/C (second compound 3.16 µM, first compound 1 µM) of 47.2%. It also gave a viability, T/C (second compound 10 µM, first compound 0.00316 µM) of 40%, a viability, T/C (second compound 10 µM, first compound 0.01 µM) of 56.9% and a viability, T/C (second compound 10 µM, first compound 0.0316 µM) of 38.3%. For the same compound, the viability, T/C (second compound 10 µM, first compound 0.1 µM) was 43.6%, the viability, T/C (second compound 10 µM, first compound 0.316 µM) was 39.3% and the viability, T/C (second compound 10 µM, first compound 1 µM) was 29.8%.

— PubChem BioAssay AID2060900 (Molecular Pharmacology Branch, DTP, NCI, 2025)
